Results from patent publication US7803381B2, “Retro-inverso gonadotropin-releasing hormone peptide and vaccine composition” (Shimoda Biotech (Pty) Ltd., priority 2002, dated 2010).
Where “and” joins values, the source holds several entries; their conditions need not be identical. Identical values can stand only once. Entries after “also recorded” stand apart in the source; their conditions may differ. Non-standard residues stand in square brackets, D forms with d. Residues, ends and D or L forms follow the SMILES beside them. No end group written: not given here. pGlu = O=C1CC[C@@H](C(=O)O)N1

Tests used:
[1] = tested on: purified rabbit anti-RI-GnRH antibodies; assay: Inhibition immunoassay (ELISA): peptide displacement of anti-RI-GnRH antibodies from fixed RI-GnRH; type: binding; settings: for inhibition by free peptide of anti-RI-GnRH antibody binding to fixed RI-GnRH: ELISA, increasing peptide concentrations
Method: (§1) Microtitre plates were coated with RI-GnRH peptide (5 μg/ml) in 100 mM Na2CO3 (pH=9.6) and incubated for one hour at 37° C. After several washes with PBS (pH=7.4) plates were saturated for one hour with 1% BSA in PBS supplemented with Tween 20 (0.1% wt/volume) at 37° C. Sera from immunised rabbits and mice at different dilutions (1:500 to 1:3200) were added to the plates and incubated for one hour at 37° C. […] Washed plates were reacted with 3,3′,5,5′-tetramethyl benzidine (TMB) and […] as substrate.
(§2) Nonspecific inhibition was determined with an unrelated L peptide, […](V9C), and an unrelated RI peptide ([…]. Various dilutions of anti-RI-GnRH antibodies were preincubated with increasing concentrations of peptide (3.9-1000 nM) for 1 h at 37° C. The percent inhibition of signal was calculated from the amount of anti-RI-GnRH antibodies that bound RI-GnRH in the presence of increasing peptide concentrations against the amount of anti-RI-GnRH antibodies that bound RI-GnRH in the absence of competing peptide.

human GnRH receptor = target: T1, human GnRH receptor (Homo sapiens, UniProt P30968); assay: GnRH analog-stimulated inositol phosphate (IP) accumulation in COS-1 cells transiently transfected with human GnRH receptor; type: cell-based
T1 construct: expressed in transfected cells; host or cells: COS-1 cells, transient transfection (DEAE-Dextran), vector pcDNA I/AMP
T1 sequence (P30968 1-328): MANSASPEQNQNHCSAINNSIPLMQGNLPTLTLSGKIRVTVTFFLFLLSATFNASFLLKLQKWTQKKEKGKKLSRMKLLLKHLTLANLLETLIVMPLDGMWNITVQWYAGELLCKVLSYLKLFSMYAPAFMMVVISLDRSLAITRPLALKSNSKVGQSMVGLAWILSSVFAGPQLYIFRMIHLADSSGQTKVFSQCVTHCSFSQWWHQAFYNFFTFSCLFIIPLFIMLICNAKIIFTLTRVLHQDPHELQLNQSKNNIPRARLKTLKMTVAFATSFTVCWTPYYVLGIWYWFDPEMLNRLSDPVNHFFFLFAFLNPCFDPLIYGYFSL
Method: COS-1 cells were cultured in Dulbecco's modified Eagle's medium/DMEM (Life Technologies, Inc., Paisley, Scotland), supplemented with 10% foetal calf serum (FCS, Delta bioproducts, Kempton Park, South Africa) in a 10% CO2 incubator at 37° C. Cells were harvested with 0.05% trypsin. For all transient transfections 2×10^5 cells/well were seeded into 12-well plates and cultured overnight in DMEM containing 10% FCS and antibiotics (2 mg/ml streptomycin sulphate, 4000 U/ml sodium benzyl penicillin). COS-1 cells were transiently transfected using the DEAE-Dextran method, as previously described.
The transfected COS-1 cells (2×10^5 cells/well) were incubated overnight in 0.5 ml Medium 199 (Life Technologies Inc.) with antibiotics and myo-[2-^3H] inositol (1 μCi/well, Amersham Pharmacia Biotech) as previously described. […] Aspirating the medium and addition of 10 mM formic acid (1 ml/well) terminated the incubation. Inositol phosphates separated from the formic acid extract on DOWEX-1 ion exchange columns and eluted into scintillation liquid (Quicksafe, Zinsser Analytical, Frankfurt, Germany) and the radioactivity was counted.
IP assays were performed in duplicate and four-parameter nonlinear curve fitting (PRISM, GraphPad Software, In., San Diego, Calif.) was used to estimate the peptide concentrations required to stimulate half-maximal IP production (EC50). […]

rabbits = assay: Rabbit immunisation with RI-GnRH conjugated with MAO; type: in vivo; settings: 100 μg/rabbit conjugated with MAO, CFA then IFA boosters
Method: Two adult female rabbits (Harlan, Leicestershire, UK) were immunised with RI-GnRH (100 μg/rabbit) conjugated with MAO. The primary injections were given subcutaneously in complete Freund's adjuvant (CFA). These were followed by three booster injections (1 ml/rabbit) in incomplete Freund's adjuvant (IFA) at two week intervals. The last booster injection was given four weeks later using 200 μg free peptide together with 1 mg methylated-BSA (m-BSA). The rabbits were bled one week after each injection. Two experiments were performed with mice to test whether immunization with RI-GnRH would generate GnRH antibodies, and different methods of immunization with RI-GnRH were tested.
as §1

BALB/c mice = assay: Second mice example: immunisation of BALB/c mice with unconjugated RI-GnRH coinjected with CpG, titre and fertility; type: in vivo, mouse; settings: for Titre 1 (d 37): individual mice 1-6, without complete Freund's adjuvant
Method: In the second experiment, four week old BALB/c mice (3 of each sex) were immunised with 25 μg/mouse unconjugated RI-GnRH coinjected with CpG (50 μg/mouse) oligonucleotide and m-BSA. A control group (2 of each sex) received saline buffer together with 50 μg/mouse CpG oligonucleotide as adjuvant (Klinman, et al., 1999) supplemented with 200 μg m-BSA. All injections were given in 10% v/v IFA. Mice were immunised at days 1, 15 and 30. They were bled and mated with partners of proven fertility at day 37 after the initial immunisation.
as §1

male BALB/c mice = type: in vivo, mouse
Method: Nine male BALB/c mice (Janvier, France), nine weeks of age, were immunised intraperitoneally (i.p.) with either 25 μg/mouse RI-GnRH conjugated with MAO (n=5) or saline buffer (n=4). The primary injections were given in CFA supplemented with 200 μg m-BSA. These were followed by two-booster injections in IFA and m-BSA at day 15 and 45 after primary injection. The mice were weighed and bled one week after each immunisation. On day 45, males injected with RI-GnRH conjugate or saline were placed with females of proven fertility and litters observed. The males were sacrificed 75 days after primary injection for histological examination.
as §1, §2
Male mice were sacrificed and the testes dissected. Testes were weighed and fixed in formalin/saline solution (12%) for routine histology. The fixed testes were dehydrated, sectioned (5 μm thick) and stained with haematoxylin and eosin.

GnRH [2] = assay: Antiserum/antibody inhibition of GnRH stimulated IP accumulation in COS-1 cells transfected with human GnRH receptor; type: cell-based, mammalian; settings: 5 nM antibody fraction; 0.3 nM GnRH, 1 nM [Gln^8]GnRH, 1 nM GnRH II
Method: (§3) The transfected COS-1 cells (2×10^5 cells/well) were incubated overnight in 0.5 ml Medium 199 (Life Technologies Inc.) with antibiotics and myo-[2-^3H] inositol (1 μCi/well, Amersham Pharmacia Biotech) as previously described. The labelled cells were incubated with various concentrations of GnRH-analogs for one hour at 37° C. in the presence of LiCl as described. Aspirating the medium and addition of 10 mM formic acid (1 ml/well) terminated the incubation. Inositol phosphates separated from the formic acid extract on DOWEX-1 ion exchange columns and eluted into scintillation liquid (Quicksafe, Zinsser Analytical, Frankfurt, Germany) and the radioactivity was counted. […] Serum from the same rabbits before immunisation was also tested. […] After one hour the incubation was terminated with formic acid and inositol phosphates were separated and counted as described. […] The mixture was added to labelled cells, and the inhibition of IP production was calculated. […] Purified anti-RI-GnRH antibodies were tested for their ability to discriminate among GnRH, [[…]]GnRH, and GnRH II. […] Stimulating with these concentrations [half-maximal effective concentrations (EC50)] in the absence of antibody produced similar levels of IP counts. […] The mixture was added to labelled cells and the inhibition of IP production calculated as described. IP assays were performed in duplicate and four-parameter nonlinear curve fitting (PRISM, GraphPad Software, In., San Diego, Calif.) was used to estimate the peptide concentrations required to stimulate half-maximal IP production (EC50). […] All kinetic analysis was performed with BiaEvaluation 3 (BIACORE) software, using the standard χ^2 statistic test. […] All statistical analyses were performed with StatView, using a standard correlation program.

GnRH [3] = target: T2, GnRH (Homo sapiens, UniProt P01148); assay: as above; type: cell-based, mammalian
T2 construct: made in house; host or cells: chemical solid-phase synthesis (University of Cape Town); receptor expressed in transfected COS-1 cells
Method: as §3

RI-GnRH peptide = assay: ELISA binding of purified anti-RI-GnRH antibody fractions to RI-GnRH; settings: ELISA titre
Method: as §1

For `NC(=O)CNC(=O)[C@@H]1CCCN1C(=O)[C@H](Cc1ccc(O)cc1)NC(=O)[C@H](Cc1c[nH]c2ccccc12)NC(=O)CNC(=O)[C@H](Cc1c[nH]cn1)NC(=O)[C@H](CO)NC(=O)[C@H](Cc1c[nH]c2ccccc12)NC(=O)[C@H](Cc1c[nH]cn1)NC(=O)[C@@H]1CCC(=O)N1` [GnRH II, [His^5, Trp^7, Tyr^8]GnRH, reference compound] ([pGlu]HWSHGWYPG-NH2), the “inhibition by free peptide of anti-RI-GnRH antibody binding to fixed RI-GnRH” value (“inhibition by free peptide” for short) [1] was “cross-react less” and the EC50 (human GnRH receptor; absence of antibody, read-out: EC50 of ligand-stimulated IP accumulation) was 1 nM.

For `CC(C)C[C@H](NC(=O)CNC(=O)[C@H](Cc1ccc(O)cc1)NC(=O)[C@H](CO)NC(=O)[C@H](Cc1c[nH]c2ccccc12)NC(=O)[C@H](Cc1c[nH]cn1)NC(=O)[C@@H]1CCC(=O)N1)C(=O)N[C@@H](CCCNC(=N)N)C(=O)N1CCC[C@H]1C(=O)NCC(N)=O` [GnRH], the “inhibition by free peptide” value [1] was “could also inhibit”.

With “GPRLGYSWHEC (G[dP][dR][dL]G[dY][dS][dW][dH][dE][dC]; not fully specified) [RI-GnRH, retro-inverso GnRH peptide with additional C-terminal cysteine for conjugation]” the anti-RI-GnRH antibody response (rabbits) was “high titre”, the “production of anti-RI-GnRH antibodies” value (BALB/c mice; 25 μg/mouse unconjugated RI-GnRH with CpG 50 μg/mouse, m-BSA, 10% IFA) was “produced anti-RI-GnRH antibodies, which cross-reacted with the native hormone” and the “mice infertile until day 220” value (BALB/c mice; boosted at day 97) was “four mice stayed infertile”. For the same compound, the “infertile mice on day 120” value (BALB/c mice; boosted at day 97, mated one week thereafter) was “Two mice were infertile”, the “Titre 1 (d 37)” value (BALB/c mice; female mice) was 3.00E−05 and 1.30E−04 and 1.00E−02 and the “Titre 1 (d 37)” value (BALB/c mice; male mice) was 3.00E−05 and 1.00E−03 and 5.00E−04. The “fertility after pairing at day 37” value (BALB/c mice; male and female mice paired with normal partners) was “All mice were infertile after pairing at day 37, except for one”, the “adverse side effects or changes in body weight” value (BALB/c mice; mouse, in vivo) was “no indication of adverse side effects or changes in body weight” and the “litters from further matings up to day 90” value (BALB/c mice; mouse, in vivo) was “no litters”. For the same compound, the “inhibition by free peptide” value [1] was “incrementally decreased”, the “development of anti-RI-GnRH antibodies” value (male BALB/c mice; 25 μg/mouse conjugated with MAO, i.p., CFA + m-BSA) was “All five immunised male mice developed anti-RI-GnRH antibodies” and the testis histology (male BALB/c mice; males sacrificed 75 days after primary injection) was “atrophied Leydig and Sertoli cells, less spermatogonia and primary spermatocytes, presence of very few spermatids and reduced diameters of the seminiferous tubules”. The “infertile immunised male mice” value (male BALB/c mice; mated with normal females from day 45) was “Two of the group of five”, the “adverse side effects or changes in body weight” value (male BALB/c mice; mouse, in vivo) was “no indication of adverse side effects or changes in body weight” and the testis weight (male BALB/c mice; mouse, in vivo) was “reduced testis weight”. The “effect of RI-GnRH peptide alone on IP accumulation / GnRH stimulated IP accumulation” value (human GnRH receptor; data not shown, listed as RI-GnRH peptide) was “could not stimulate or inhibit; also recorded: did not stimulate or inhibit”.

With KSCN the “cross-reaction of eluted antibody fractions with GnRH” value ([1]; inhibition ELISA) was “cross-reacted most efficiently”, the “inhibition of GnRH (analog) stimulated IP production by eluted antibody fractions” value (GnRH [2]) was “most effective” and the IC50 (GnRH [3]; 0.3 nM GnRH, read-out: antibody concentration inhibiting 50% of GnRH-stimulated IP accumulation) was 1.7 nM.

VRTVEDGEC [V9C, unrelated L peptide] was tested, and the “inhibition by free peptide” value [1] was “not significantly inhibited; also recorded: low inhibition”.

glycine was tested, and the “affinity of antibody populations for RI-GnRH peptide” value (RI-GnRH peptide) was “higher affinity than those eluted with KSCN” and the “fold suppression of EC50 of GnRH-stimulated IP accumulation” value (GnRH [3]; 5 nM antibody fraction) was 4.4 fold.
